Measurements reported in US20170298052A1, “SUBSTITUTED OXOPYRIDINE DERIVATIVES” (BAYER PHARMA AKTIENGESELLSCHAFT, priority 2014, published 2017).

What was measured:
[1] = biological target: T1, human factor XIa (Homo sapiens, UniProt P03951); assay: Measurement of FXIa inhibition (fluorogenic peptide substrate, AMC cleavage); assay type: biochemical; conditions: factor XIa from Kordia 0.45 nM; substrate Boc-Glu(OBzl)-Ala-Arg-AMC; 30 min at 22° C.
T1 construct: purchased Kordia
Method: (§1) The factor XIa inhibition of the substances according to the invention is determined using a biochemical test system which utilizes the reaction of a peptidic factor XIa substrate to determine the enzymatic activity of human factor XIa. Here, factor XIa cleaves from the peptic factor XIa substrate the C-terminal aminomethylcoumarin (AMC), the fluorescence of which is measured. The determinations are carried out in microtitre plates.
1 μl of the diluted substance solutions is placed into each of the wells of white microtitre plates from Greiner (384 wells). […] After 15 min of incubation, the enzyme reaction is started by addition of 20 μl of the factor XIa substrate Boc-Glu(OBzl)-Ala-Arg-AMC dissolved in assay buffer (10 μM in assay buffer) from Bachem, the mixture is incubated at room temperature (22° C.) for 30 min and fluorescence is then measured (excitation: 360 nm, emission: 460 nm). The measured emissions of the test batches with test substance are compared to those of control batches without test substance (only dimethyl sulphoxide instead of test substance in dimethyl sulphoxide), and IC50 values are calculated from the concentration/activity relationships.

[2] = biological target: human plasma kallikrein (Homo sapiens, UniProt P03952); assay: Determination of the plasma kallikrein activity (fluorogenic peptide substrate, AMC cleavage); assay type: biochemical; conditions: plasma kallikrein from Kordia 0.6 nM; substrate H-Pro-Phe-Arg-AMC; 30 min at 22° C.; read-out: IC50 [nM] (Table B, plasma kallikrein inhibition)
Chain of human plasma kallikrein (P03952 391-638 limits assumed): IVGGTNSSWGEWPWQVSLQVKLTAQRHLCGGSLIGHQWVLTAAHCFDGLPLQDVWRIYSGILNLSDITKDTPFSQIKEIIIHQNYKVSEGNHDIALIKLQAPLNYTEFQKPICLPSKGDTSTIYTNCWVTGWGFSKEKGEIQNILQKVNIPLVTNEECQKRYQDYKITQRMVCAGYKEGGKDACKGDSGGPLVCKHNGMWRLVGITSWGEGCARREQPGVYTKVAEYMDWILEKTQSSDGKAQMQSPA
Chain of human plasma kallikrein (P03952 20-390 partner limits assumed): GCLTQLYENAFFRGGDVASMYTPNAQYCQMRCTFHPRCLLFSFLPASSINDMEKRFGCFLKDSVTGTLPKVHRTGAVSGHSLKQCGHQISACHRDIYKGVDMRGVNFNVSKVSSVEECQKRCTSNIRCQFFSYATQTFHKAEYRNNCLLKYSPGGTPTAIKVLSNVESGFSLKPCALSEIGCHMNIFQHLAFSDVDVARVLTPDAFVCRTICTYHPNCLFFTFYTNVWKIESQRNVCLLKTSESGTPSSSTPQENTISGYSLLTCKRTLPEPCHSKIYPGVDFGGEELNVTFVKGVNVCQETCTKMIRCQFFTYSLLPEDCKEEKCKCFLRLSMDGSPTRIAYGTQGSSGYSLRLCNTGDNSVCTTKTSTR
Method: as §1, with “To determine the plasma kallikrein” for “The factor XIa”, “invention,” for “invention is determined using”, “system is used” for “system”, “plasma kallikrein” for “factor XIa”, “plasma kallikrein.” for “factor XIa.”
Test substances are dissolved in dimethyl sulphoxide and serially diluted in dimethyl sulphoxide (3000 μM to 0.0078 μM; resulting final concentrations in the test: 50 μM to 0.00013 μM). 1 μl of the diluted substance solutions is placed into each of the wells of white microtitre plates from Greiner (384 wells). 20 μl of assay buffer (50 mM Tris/HCl pH 7.4; 100 mM sodium chloride solution; 5 mM of calcium chloride solution; 0.1% of bovine serum albumin) and 20 μl of plasma kallikrein from Kordia (0.6 nM in assay buffer) are then added successively. After 15 min of incubation, the enzyme reaction is started by addition of 20 μl of the substrate H-Pro-Phe-Arg-AMC dissolved in assay buffer (10 μM in assay buffer) from Bachem, the mixture is incubated at room temperature (22° C.) for 30 min and fluorescence is then measured (excitation: 360 nm, emission: 460 nm). The measured emissions of the test batches with test substance are compared to those of control batches without test substance (only dimethyl sulphoxide instead of test substance in dimethyl sulphoxide), and IC50 values are calculated from the concentration/activity relationships.

T1 sequence (P03951 388-625 limits assumed): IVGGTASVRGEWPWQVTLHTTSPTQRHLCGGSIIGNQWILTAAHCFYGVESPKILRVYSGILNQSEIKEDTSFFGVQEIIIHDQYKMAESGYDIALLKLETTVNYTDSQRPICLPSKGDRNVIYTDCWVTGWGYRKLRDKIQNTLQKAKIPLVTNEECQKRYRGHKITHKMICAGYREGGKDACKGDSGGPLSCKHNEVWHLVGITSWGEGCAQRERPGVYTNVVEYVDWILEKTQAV
T1 sequence (P03951 19-387 partner limits assumed): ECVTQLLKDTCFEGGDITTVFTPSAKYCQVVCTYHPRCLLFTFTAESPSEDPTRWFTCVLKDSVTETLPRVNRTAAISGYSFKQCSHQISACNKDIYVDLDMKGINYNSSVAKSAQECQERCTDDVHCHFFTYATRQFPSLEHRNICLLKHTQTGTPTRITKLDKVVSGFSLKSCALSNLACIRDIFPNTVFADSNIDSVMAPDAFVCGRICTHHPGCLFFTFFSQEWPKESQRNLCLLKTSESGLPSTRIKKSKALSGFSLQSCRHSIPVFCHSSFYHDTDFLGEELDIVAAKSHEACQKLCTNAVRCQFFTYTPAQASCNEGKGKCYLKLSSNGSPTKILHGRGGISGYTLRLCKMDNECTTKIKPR

| IC50 [1] [nM] | IC50 [2] [nM] | Structure (SMILES) |
| --- | --- | --- |
| 6.2 | 3.6 | COc1cn(C(Cc2ccn(C)n2)C(=O)Nc2ccc(C(N)=O)c(F)c2)c(=O)cc1-c1cc(Cl)ccc1C#N (racemic) [Example 38, 4-({2-[4-(5-Chloro-2-cyanophenyl)-5-methoxy-2-oxopyridin-1(2H)-yl]-3-(1-methyl-1H-pyrazol-3-yl)propanoyl}amino)-2-fluorobenzamide] |
| 28 | 27 | COCCC(C(=O)Nc1ccc(C(N)=O)c(F)c1)n1cc(OC)c(-c2cc(C)ccc2C#N)cc1=O (racemic) [Example 49, 4-({2-[4-(2-Cyano-5-methylphenyl)-5-methoxy-2-oxopyridin-1(2H)-yl]-4-methoxybutanoyl}amino)-2-fluorobenzamide] |
| 20 | 20 | CCC(C(=O)Nc1ccc(C(=O)NC)cc1)n1cc(OC)c(-c2cc(Cl)ccc2C#N)cc1=O (racemic) [Example 26, 4-({2-[4-(5-chloro-2-cyanophenyl)-5-methoxy-2-oxopyridin-1(2H)-yl]butanoyl}amino)-N-methylbenzamide] |
| 11 | 10 | COc1cn(C(Cc2ccccn2)C(=O)Nc2ccc(C(N)=O)c(F)c2)c(=O)cc1-c1cc(Cl)ccc1C#N (stereo not shown) [Example 12] |
| 28 | 21 | COc1cn(C(Cc2coc(C)n2)C(=O)Nc2ccc(C(N)=O)c(F)c2)c(=O)cc1-c1cc(Cl)ccc1C#N (racemic) [Example 41, 4-({2-[4-(5-Chloro-2-cyanophenyl)-5-methoxy-2-oxopyridin-1(2H)-yl]-3-(2-methyl-1,3-oxazol-4-yl)-propanoyl}amino)-2-fluorobenzamide] |
| 160 | 490 | N#Cc1ccc(Cl)cc1-c1cc(=O)n(C(Cc2ccccn2)C(=O)Nc2ccc(C(N)=O)c(F)c2)cc1OC(F)F (stereo not shown) [Example 11] |
| 47 | 110 | COCCC(C(=O)Nc1ccc(C(N)=O)c(F)c1)n1cc(Cl)c(-c2cc(Cl)ccc2C#N)cc1=O (stereo not shown) [Example 6] |
| 12 | 7.3 | COc1cn(C(Cc2nnc(C)o2)C(=O)Nc2ccc(C(N)=O)c(F)c2)c(=O)cc1-c1cc(Cl)ccc1C#N (racemic) [Example 35, 4-({2-[4-(5-Chloro-2-cyanophenyl)-5-methoxy-2-oxopyridin-1(2H)-yl]-3-(5-methyl-1,3,4-oxadiazol-2-yl)propanoyl}amino)-2-fluorobenzamide] |
| 32 | 24 | CNC(=O)c1ccc(NC(=O)C(Cc2coc(C)n2)n2cc(OC)c(-c3cc(Cl)ccc3C#N)cc2=O)cc1F (racemic) [Example 47, 4-({2-[4-(5-Chloro-2-cyanophenyl)-5-methoxy-2-oxopyridin-1(2H)-yl]-3-(2-methyl-1,3-oxazol-4-yl)propanoyl}amino)-2-fluoro-N-methylbenzamide] |
| 170 | 310 | COCCC(C(=O)Nc1ccc(C(N)=O)c(F)c1)n1cc(OC)c(-c2cc(OC)ccc2C#N)cc1=O (racemic) [Example 23, 4-({2-[4-(2-Cyano-5-methoxyphenyl)-5-methoxy-2-oxopyridin-1(2H)-yl]-4-methoxybutanoyl}amino)-2-fluorobenzamide] |
| 13 | 11 | COc1cn(C(Cc2cc(C)no2)C(=O)Nc2ccc(C(N)=O)c(F)c2)c(=O)cc1-c1cc(Cl)ccc1C#N (racemic) [Example 32, 4-({2-[4-(5-Chloro-2-cyanophenyl)-5-methoxy-2-oxopyridin-1(2H)-yl]-3-(3-methyl-1,2-oxazol-5-yl)propanoyl}amino)-2-fluorobenzamide] |
| 12.5 | 7.4 | COc1cn(C(CCOC(C)C)C(=O)Nc2ccc(C(N)=O)c(F)c2)c(=O)cc1-c1cc(Cl)ccc1C#N (racemic) [Example 19, 4-({2-[4-(5-Chloro-2-cyanophenyl)-5-methoxy-2-oxopyridin-1(2H)-yl]-4-isopropoxybutanoyl}amino)-2-fluorobenzamide] |
| 63 | 110 | N#Cc1ccc(Cl)cc1-c1cc(=O)n(C(Cc2ccccn2)C(=O)Nc2ccc(C(N)=O)c(F)c2)cc1Cl (stereo not shown) [Example 13] |
| 240 | 490 | N#Cc1ccc(Cl)cc1-c1cc(=O)n(C(Cc2cnco2)C(=O)Nc2ccc(C(N)=O)c(F)c2)cc1OC(F)F (stereo not shown) [Example 1] |
| 52 | 140 | N#Cc1ccc(Cl)cc1-c1cc(=O)n(C(Cc2cnco2)C(=O)Nc2ccc(C(N)=O)c(F)c2)cc1Cl (stereo not shown) [Example 4] |
| 310 | 160 | COCCC(C(=O)Nc1ccc(C(N)=O)c(F)c1)n1cc(OC)c(-c2cc(Cl)c(F)cc2C#N)cc1=O (racemic) [Example 25, 4-({2-[4-(5-Chloro-2-cyano-4-fluorophenyl)-5-methoxy-2-oxopyridin-1(2H)-yl]-4-methoxy-butanoyl}amino)-2-fluorobenzamide] |
| 15 | 7.7 | COCCC(C(=O)Nc1ccc(C(N)=O)c(OC)c1)n1cc(OC)c(-c2cc(Cl)ccc2C#N)cc1=O (racemic) [Example 48, 4-({2-[4-(5-Chloro-2-cyanophenyl)-5-methoxy-2-oxopyridin-1(2H)-yl]-4-methoxybutanoyl}amino)-2-methoxybenzamide] |
| 43 | 33 | COc1cn(C(Cc2cocn2)C(=O)Nc2ccc(C(N)=O)c(F)c2)c(=O)cc1-c1cc(Cl)ccc1C#N (stereo not shown) [Example 3] |
| 25 | 210 | N#Cc1ccc(Cl)cc1-c1cc(=O)n(C(C[C@@H]2CCCCO2)C(=O)Nc2ccc(C(N)=O)c(F)c2)cc1Cl (stereo partly shown) [Example 14] |
| 8.9 | 2.4 | COc1cc(NC(=O)C(Cc2ccn(C)n2)n2cc(OC)c(-c3cc(Cl)ccc3C#N)cc2=O)ccc1C(N)=O (racemic) [Example 46, 4-({2-[4-(5-Chloro-2-cyanophenyl)-5-methoxy-2-oxopyridin-1(2H)-yl]-3-(1-methyl-1H-pyrazol-3-yl)propanoyl}amino)-2-methoxybenzamide] |
| 12 | 30 | CCC(C(=O)Nc1ccc(C(=O)NC)c(F)c1)n1cc(OC)c(-c2cc(Cl)ccc2C#N)cc1=O (stereo not shown) [Example 8] |
| 5.1 | 2.7 | COc1cn(C(Cc2ccncc2)C(=O)Nc2ccc(C(N)=O)c(F)c2)c(=O)cc1-c1cc(Cl)ccc1C#N (single isomer, unassigned) [Example 29, 4-({2-[4-(5-Chloro-2-cyanophenyl)-5-methoxy-2-oxopyridin-1(2H)-yl]-3-(pyridin-4-yl)propanoyl}amino)-2-fluorobenzamide] |
| 200 | 350 | COc1cn(C(Cc2cc(C)no2)C(=O)Nc2ccc(C(N)=O)c(F)c2)c(=O)cc1-c1cc(Cl)ccc1F (stereo not shown) [Example 16] |
| 9 | 7 | COc1cn(C(Cc2ccncc2)C(=O)Nc2ccc(C(N)=O)c(F)c2)c(=O)cc1-c1cc(Cl)ccc1C#N (stereo not shown) [Example 10] |
| – | 9.7 | COCCC(C(=O)Nc1ccc(C(N)=O)c(F)c1)n1cc(OC)c(-c2cc(Cl)ccc2C#N)cc1=O (racemic) [Example 31, 4-({2-[4-(5-Chloro-2-cyanophenyl)-5-methoxy-2-oxopyridin-1(2H)-yl]-4-methoxybutanoyl}amino)-2-fluorobenzamide] |
